Experimental data taken from paper PMC9446078 (Frontiers in Endocrinology, 2022).
Counter-ions that a name gives are not always drawn. Like-named read-outs stand apart in the source and are kept apart here.

Legend:
[1] = test system: Ea.hy926 (human endothelial cells); assay: Scratch assay, endothelial cell migration under high glucose; format: cell-based
Method: (§1) High blood glucose levels hamper the migration of human fibroblasts, endothelial cells, and keratinocytes that impair wound healing ([16]–[20]). […] The detailed protocol and cytotoxicity results are provided in the Supplementary File. An actively growing culture of HFF-1 (human dermal fibroblasts), Ea.hy926 (human endothelial cells), and HaCaT (human keratinocytes) cell lines in Dulbecco’s modified Eagle’s medium containing 25 mM glucose supplemented with 10% fetal bovine serum was prepared. The cells were counted through a hemocytometer and were seeded at a density of 0.08 × 10^6 (HFF-1), 0.1 × 10^6 (Ea.hy926), and 0.2 × 10^6 (HaCaT Cells) cells/well/ml of culture medium. The plates were incubated overnight followed by serum starvation for 24 h. Scratch wounds were made in a confluent monolayer by making a straight scratch in the center of the well using a sterile 200-µl pipette microtip. […] The kinetics of migration of the cells in the wound was recorded by phase-contrast microscopy. The experiment was carried out in duplicate cells for each concentration.

[2] = test system: HaCaT (human keratinocytes); assay: Scratch assay, keratinocyte migration under high glucose; format: cell-based
Method: as §1

[3] = MTT cytotoxicity in HaCaT; format: cell-based, human; conditions: human, HaCaT cells, 48 h, read-out: % Cytotoxicity w.r.t. untreated cells
Method: (§2) 1. HaCaT, HFF-1 and Ea.hy926 cells were counted and plated in 96 well plates at the density corresponding to 5 X 10^3 cells/well/180 μl of cell growth medium.
(§3) 2. The above cells were then incubated overnight under growth conditions of 37°C, 95 % Humidity, 5 % CO2.so as to allow the cell recovery and exponential growth.
(§4) 3. Following overnight incubation, the above cells were serum starved in DMEM (containing 25 mM glucose) supplemented with […] for 24 h.
(§5) 5. The Ea.hy926 cells were then incubated for 24 h and HaCaT and HFF-1 cells were incubated for 48 h in CO2 incubator at 37 °C, 5 % CO2 and 95 % humidity.
(§6) 6. Following incubation, the plates were taken out and 20 μl of 5 mg/ml of MTT 3-(4,5-dimethythiazol-2-yl)-2,5-diphenyl tetrazolium bromide solution was added to all the wells followed by additional incubation for 3 h at 37 °C. The supernatant was aspirated and 150 μl of DMSO was added to each well to dissolve formazan crystals. The absorbance of each well was then read at 540 nm using Synergy HT micro plate reader.
(§7) 7. The percentage cytotoxicity at each tested concentration was calculated using the following formula:
(§8) % Cytotoxicity = (1-X/R)*100

HaCaT cells = assay: MTT cytotoxicity in HaCaT; format: cell-based, human; conditions: all tested concentrations (0.01 to 1000 μM), <30% = non-cytotoxic
Method: as §2, §3, §4, §5, §6, §7, §8

[4] = Toxicokinetics in miniature swine; format: in vivo, Hanford miniature swine; conditions: for Cmax: read-out: Cmax; for Tmax: read-out: Tmax
Method: A total of 40 Hanford miniature swine (20 male and 20 female) divided into four treatment groups were used for this study. A 12-week topical application of Galnobax 20% was carried out in the miniature swine wound healing model with twice-daily dosing. Six wounds (10 cm^2 each) of partial thickness were created on the dorsal region of all animals. Four wounds of each animal received twice-daily topical doses of either the vehicle or Galnobax gel, and the remaining two sites served as untreated comparative control wounds. Each group has four male and female miniature swine for the assessments and one each for the recovery period as given in Table 1 . Safety parameters in terms of ECG, clinical pathology, wound site evaluation, and toxicokinetics were performed during the study.

[5] = design: method as in PMID 2879662, PMID 7957532, PMID 6135794; conditions: approved (intravenous) dose; cited from earlier work
[6] = 1 and 10 µM, compared with control, high glucose
[7] = 100 and 500 µM compared with 1 and 10 µM
[8] = both sexes, Hanford, pig, blood, topical or ocular, 400 mg, Day 1, Group 2 swine, topical 400 mg Galnobax Gel, mean
[9] = both sexes, Hanford, pig, blood, topical or ocular, 400 mg, Week 12, Group 2 swine, topical 400 mg Galnobax Gel BID, mean

COC(=O)CCc1ccc(OCC(O)CNC(C)C)cc1 (centres unmarked) [Esmolol hydrochloride]
migration of endothelial cells [1, 6]: enhanced the migration
migration of endothelial cells [1, 7]: lower migration
migration of keratinocytes [2, 6]: enhanced the migration
migration of keratinocytes [2, 7]: lower migration
cytotoxicity at 48 h, 0.01 µM ([3]; 0.01 μM): -19.2%
cytotoxicity at 48 h, 0.1 µM ([3]; 0.1 μM): -8.02%
cytotoxicity at 48 h, 1 µM ([3]; 1 μM): -6.93%
cytotoxicity at 48 h, 10 µM ([3]; 10 μM): -14.8%
cytotoxicity at 48 h, 50 µM ([3]; 50 μM): -18.1%
cytotoxicity at 48 h, 100 µM ([3]; 100 μM): -18.5%
cytotoxicity at 48 h, 500 µM ([3]; 500 μM): 16.2%
cytotoxicity at 48 h, 1000 µM ([3]; 1000 μM): 18.3%
cytotoxicity (HaCaT cells): non-cytotoxic
concentration at 8 hr ([4]; both sexes, Hanford, pig (miniature swine), blood, after first topical dose of Galnobax Gel 400 mg, below the quantitation limit, read-out: blood concentration by the second daily dose (8 hr)): < 5 ng/mL
AUC(0-t) [4, 8]: 18.7 ng·h/mL
Cmax [4, 8]: 30.3 ng/mL
Tmax [4, 8]: 18 min
AUC(0-t) [4, 9]: 17.5 ng·h/mL
AUC from 0 to 8 h ([4]; both sexes, Hanford, pig, blood, topical or ocular, 400 mg, Week 12, Group 2 swine, topical 400 mg Galnobax Gel BID, mean, read-out: AUC0-8): 35.4 ng·h/mL
Cmax [4, 9]: 140 ng/mL
Tmax [4, 9]: 22.8 min
accumulation after 12 weeks of twice-daily topical application ([4]; miniature swine, topical Galnobax): no apparent accumulation
Cmax of the approved human dose [5]: 868–1,470 ng/ml
